Test results: PubChem BioAssay AID624285 (Broad Institute, 2012)
Values joined by “and” are separate entries in the source; they are usually repeats but may differ in a detail not shown here. Equal values may be shown once. Active and inactive are the calls of the source.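 Rule for the calls: active = signal-decreasing dose-response curve whose fitted half-maximal concentration is at or below twice the highest valid tested dose; inconclusive = flat fit at 30 to 70% signal loss, or poor fit; inactive = the rest.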

Test: cell viability loss after compound exposure – 24 h, luminescence, cherry-picked samples, cytotoxicity control for PDI inhibitor project, dose response (AID 624285)
Conditions: NIH3T3/HeLa viability, CellTiter-Glo ATP luminescence, 24 h; at 35 µM (top of the series)

Structure (SMILES) | activity change, negative = cytotoxicity
Cc1cc(=O)c(C(=O)Nc2cccc(C(=O)NC3CC3)c2)nn1-c1ccccc1 | -3.19% (inactive)
O=C(NCCN1CCOCC1)c1cccnc1SCc1ccccc1Cl | -5.22% (inactive)
CCOc1ccc(C(=O)NCC(=O)OCC(=O)N(C)CC(=O)Nc2ccccc2CC)cc1OCC | -4.27% (inactive)
Cc1noc(C)c1C(=O)OCC(=O)NCCc1ccc(Cl)cc1 | -14.2% (inactive)
CCOC(=O)C1(Cc2ccc(O)cc2)NC(c2ccccc2F)C2C(=O)N(C)C(=O)C21 (stereo not given) | -15.5% (inactive)
CCCCn1c(SCC(=O)Nc2ccc(C)c(S(=O)(=O)N3CCOCC3)c2)nnc1C(CC)N(C)C (stereo not given) | 1.22% (inactive)
COC(=O)CC1OCC=C2CN3CCC45C6=CC(=O)C(=O)C([N+](=O)[O-])=C6NC4C1C2CC35 (stereo not given) | -13% (inactive)
COc1ccc(/C(C)=N/NC(=O)CNC(=O)c2cccs2)cc1 | -6.13% (inactive)
CC[C@]12c3[nH]c4cc(-c5ccco5)ccc4c3CCN1C(=O)[C@@H](CC(=O)NCCCOC)C[C@@H]2C(=O)N1CCN(C(=O)C2CC2)CC1 | -8.63% (inactive)
CCOc1ccc2[nH]c(=O)c(CN(CCO)C(=O)CC)cc2c1 | -9.33% (inactive)
Cc1cc(C)cc(CC(=O)N2CCC2(C)C(=O)NS(=O)(=O)c2ccc(Br)cc2)c1 (stereo not given) | -4.97% (inactive)
Cc1ccc2nsnc2c1NC(=O)c1cccnc1Cl | -3.17% (inactive)
CCOC(=O)c1cc(S(=O)(=O)N2CCN(C(=O)OCC)CC2)cn1C | -3.84% (inactive)
CCOc1ccc2nc(SCC(=O)c3ccc(Cl)s3)sc2c1 | -9.42% (inactive)
C/C=C(\C)C(=O)NCCN1C2=NC[C@H](Cc3ccc(O)cc3)N2C[C@H]1Cc1ccc(O)cc1 | -2.15% (inactive)
O=C(NCc1ccccc1)c1cc(C2CCCN(C(=O)C3CCCCC3)C2)on1 (stereo not given) | -16.2% (inactive)
O=C(NCCCN1CCOCC1)C(Sc1ccccc1)c1ccccc1 (stereo not given) | -12% (inactive)
COc1ccc(Cl)cc1NC(=O)COC(=O)C1CC1 | -9.32% (inactive)
CCCCC1CCC(c2nc(-c3ccccn3)no2)CC1 (stereo not given) | -12.5% (inactive)
CCOC(=O)c1c(-c2ccccc2)oc2cc(Br)c(O)cc12 | -20.5% (inactive)
C[C@H]1CN([C@@H](C)CO)C(=O)c2cccc(NS(C)(=O)=O)c2O[C@@H]1CN(C)Cc1ccc(Oc2ccccc2)cc1 | -9.08% (inactive)
Cc1noc(C)c1S(=O)(=O)Nc1ccc2c(c1)CC(=O)N([C@H](C)CO)C[C@H](C)[C@H](CN(C)S(C)(=O)=O)O2 | 1.83% (inactive)
COc1ccc(CN(C)C[C@@H]2Oc3c(NS(C)(=O)=O)cccc3C(=O)N([C@H](C)CO)C[C@H]2C)cc1 | 2.2% (inactive)
Cc1ccc(O)c(NC(=O)CSc2n[nH]c(-c3ccccc3)n2)c1 | -16.4% (inactive)
Cn1c(=O)n(CCCOc2ccc(Br)cc2)c2ccccc21 | -15.3% (inactive)
CC(=O)OC[C@H]1O[C@@H](Oc2cc(O)cc3oc(-c4ccc(O)cc4)cc(=O)c23)[C@H](O[C@@H]2O[C@@H](C)[C@H](O)[C@@H](O)[C@H]2O)[C@@H](O)[C@@H]1O | -6.13% (inactive)
O=c1c(OC2OC(CO)C(O)C(O)C2O)c(-c2ccc(O)c(O)c2)oc2cc(O)cc(O)c12 (stereo not given) | -0.384% (inactive)
COc1cc(CCC(=O)OCC(=O)Nc2cc(S(=O)(=O)N3CCOCC3)ccc2Cl)cc(OC)c1OC | -2.35% (inactive)

Structure (SMILES) | activity change, negative = cytotoxicity
CCCCn1c(N)c(N(CC(C)C)C(=O)c2cc(-c3ccncc3)nc3ccccc23)c(=O)[nH]c1=O | -9.75% (inactive)
O=C(O)c1ccccc1Cc1ccc(F)c2ccccc12 | -10.5% (inactive)
O=C(Nc1ccccc1)c1cc(C2CCCCN2C(=O)c2ccccc2)on1 (stereo not given) | -15.5% (inactive)
CCOC(=O)C(C)c1n[nH]c(=O)c2ccccc12 (stereo not given) | -6.39% (inactive)
CC(=O)c1ccc(N2CCN(C(=O)c3ccc4[nH]c(C)c(C)c4c3)CC2)cc1 | -9.89% (inactive)
O=C1NC[C@H](Cc2ccccc2)N(C[C@H]2CCCN2C[C@H](Cc2ccc(O)cc2)N2C[C@H](Cc3ccc(O)cc3)N(CC3CCCCCC3)C(=O)C2=O)C1=O | -18.9% (inactive)
Cc1cccc(C(=O)OCC(=O)N2CCCCCC2)c1O | -10.1% (inactive)
CC(C)(C)OC(=O)N[C@@H](Cc1c[nH]c2ccccc12)c1nnc(SCC(N)=O)o1 | -7.43% (inactive)
C[C@@H]1CN([C@H](C)CO)C(=O)c2cc(NC(=O)Cc3cn(C)c4ccccc34)ccc2O[C@H]1CN(C)S(=O)(=O)c1ccc(F)cc1 | -11.7% (inactive) and -2.14% (inactive)
Cc1ccc(C)c(NS(=O)(=O)c2c(C)nn(C)c2C)c1 | -1.82% (inactive)
CN(C)S(=O)(=O)c1ccc(C(=O)Nc2ccc3nc(N4CCOCC4)sc3c2)cc1 | -20.7% (inactive)
Cc1cc2c3c(c1)C1(C(=O)N3C(C)(C)CC2C)C(C#N)=C(N)Oc2n[nH]c(C)c21 (stereo not given) | -11.6% (inactive)
Cc1c(C(=O)N2CCOCC2)sc2ncn(CC(=O)N3CCC(C)CC3)c(=O)c12 | -2.62% (inactive)
CCc1ccc(NC(=O)Nc2ccncc2)cc1 | -3.55% (inactive)
CCOc1ccc(NC(=O)CCc2nnc3ccc(N4CCN(C)CC4)nn23)cc1 | -6.93% (inactive)
Cc1cc(C)cc(OCC(=O)Nc2ccccc2C(=O)N2CCOCC2)c1 | -11.8% (inactive)
Cc1ccc2c(=O)n3c(nc2c1)C(Cc1ccc(O)cc1)NC(=O)c1cccnc1-3 (stereo not given) | -12.6% (inactive)
C[C@@H]1CN([C@H](C)CO)C(=O)Cc2cc(NC(=O)Nc3ccccc3)ccc2O[C@@H]1CN(C)Cc1ccccc1 | -3.74% (inactive)
CC(C)Cn1c(N)c(C(=O)COC(=O)c2ccc(O)cc2)c(=O)n(C)c1=O | -14.4% (inactive)
C[C@H]1CCCC(=O)CCCCCc2cc(O)cc(O)c2C(=O)O1 | -12.8% (inactive)
Cc1c(O)ccc2c(CN3CCN(Cc4ccccc4)CC3)cc(=O)oc12 | -14.2% (inactive)
Cc1ccc(N2CC(C(=O)Nc3nc4ccc(S(C)(=O)=O)cc4s3)CC2=O)cc1 (stereo not given) | -4.02% (inactive)
O=c1cc(CSc2nnnn2-c2ccc(O)cc2)nc2sccn12 | -22.1% (inactive)
Cc1cc(Cl)ccc1OCc1n[nH]c(=S)n1C1CCCCC1 | -11% (inactive)
CC1CC(C)CN(C(=O)COC(=O)c2ccc[nH]c2=O)C1 (stereo not given) | -4.68% (inactive)
C[C@@H]1O[C@@H](Oc2c(-c3cc(O)c(O)c(O)c3)oc3cc(O)cc(O)c3c2=O)[C@H](O)[C@H](O)[C@H]1O | -5.81% (inactive)
O=C(Nc1oc2ccccc2c(=O)c1-c1ccc(Cl)cc1)c1ccco1 | -2.88% (inactive)
